Experimental data: ChEMBL document CHEMBL1201862, “PubChem BioAssay data set” (2004)
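Cells were grown in 96-well plates and exposed to each compound for 48 hours at five concentrations; endpoints were interpolated linearly between bracketing concentrations, or set to the highest concentration if not reached. GI50 = concentration required for 50% inhibition of growth.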 Calls of active or inactive are those of the source. Rule as the data show it: active = GI50 up to about 1.1 µM and inactive = higher.

What was measured:
Assay in all cases: inhibition of tumour cell growth, NCI panel, 48 h
DMS-114 = test system: DMS-114
Malme-3M = test system: Malme-3M
DMS-273 = test system: DMS-273
HCT-116 = test system: HCT-116
U-251 = test system: U-251
HCT-15 = test system: HCT-15
SNB-78 = test system: SNB-78
M19-MEL = test system: M19-MEL
UO-31 = test system: UO-31
SF-539 = test system: SF-539
LOX IMVI = test system: LOX IMVI
OVCAR-3 = test system: OVCAR-3
IGROV-1 = test system: IGROV-1
UACC-62 = test system: UACC-62
RXF 393 = test system: RXF 393
EKVX = test system: EKVX
COLO 205 = test system: COLO 205
SW-620 = test system: SW-620
HOP-18 = test system: HOP-18
SK-MEL-2 = test system: SK-MEL-2
SF-295 = test system: SF-295
HCC 2998 = test system: HCC 2998
HT-29 = test system: HT-29
KM12 = test system: KM12
SK-MEL-28 = test system: SK-MEL-28
A498 = test system: A498
SK-MEL-5 = test system: SK-MEL-5
OVCAR-4 = test system: OVCAR-4
NCI-H23 = test system: NCI-H23
A549 = test system: A549
HOP-92 = test system: HOP-92
XF498 = test system: XF498
SN12C = test system: SN12C
SF-268 = test system: SF-268
DLD-1 = test system: DLD-1
NCI/ADR-RES = test system: NCI/ADR-RES
MCF7 = test system: MCF7
HL-60 = test system: HL-60
OVCAR-5 = test system: OVCAR-5
NCI-H522 = test system: NCI-H522
OVCAR-8 = test system: OVCAR-8
NCI-H460 = test system: NCI-H460
SNB-75 = test system: SNB-75
KM-20L2 = test system: KM-20L2
SNB-19 = test system: SNB-19
HOP-62 = test system: HOP-62
LXFL 529 = test system: LXFL 529
786-0 = test system: 786-0
MOLT-4 = test system: MOLT-4
NCI-H226 = test system: NCI-H226
M14 = test system: M14
K562 = test system: K562
UACC-257 = test system: UACC-257
RPMI-8226 = test system: RPMI-8226
SR = test system: SR
ACHN = test system: ACHN
CAKI-1 = test system: CAKI-1
CCRF-CEM = test system: CCRF-CEM
TK-10 = test system: TK-10

With `O=c1oc2c(ccc3occc32)c(N2CCCCC2)c1-c1ccccc1` the GI50 (DMS-114) was > 86.1 µM (inactive), the GI50 (Malme-3M) was > 100 µM (inactive) and the GI50 (DMS-273) was > 100 µM (inactive). For the same compound, the GI50 (HCT-116) was > 100 µM (inactive), the GI50 (U-251) was > 100 µM (inactive) and the GI50 (HCT-15) was greater than 80 µM. The GI50 (SNB-78) was > 91.8 µM (inactive), the GI50 (M19-MEL) was > 100 µM (inactive) and the GI50 (UO-31) was 12.7 µM (inactive). For the same compound, the GI50 (SF-539) was > 100 µM (inactive), the GI50 (LOX IMVI) was > 100 µM (inactive) and the GI50 (OVCAR-3) was > 100 µM (inactive). The GI50 (IGROV-1) was > 100 µM (inactive), the GI50 (UACC-62) was > 95.1 µM (inactive) and the GI50 (RXF 393) was > 64.3 µM (inactive). The GI50 (EKVX) was > 70.8 µM (inactive), the GI50 (COLO 205) was > 100 µM (inactive) and the GI50 (SW-620) was > 100 µM (inactive). The GI50 (HOP-18) was > 88.5 µM (inactive), the GI50 (SK-MEL-2) was > 100 µM (inactive) and the GI50 (SF-295) was 97.3 µM (inactive). The GI50 (HCC 2998) was > 100 µM (inactive), the GI50 (HT-29) was 61.2 µM (inactive) and the GI50 (KM12) was > 66.5 µM (inactive). The GI50 (SK-MEL-28) was > 100 µM (inactive), the GI50 (A498) was > 100 µM (inactive) and the GI50 (SK-MEL-5) was > 72.4 µM (inactive). The GI50 (OVCAR-4) was > 93.3 µM (inactive), the GI50 (NCI-H23) was > 100 µM (inactive) and the GI50 (A549) was > 93.3 µM (inactive). The GI50 (HOP-92) was > 73.8 µM (inactive), the GI50 (XF498) was > 100 µM (inactive) and the GI50 (SN12C) was > 100 µM (inactive). The GI50 (SF-268) was > 100 µM (inactive), the GI50 (DLD-1) was > 100 µM (inactive) and the GI50 (NCI/ADR-RES) was > 100 µM (inactive). For the same compound, the GI50 (MCF7) was > 93.5 µM (inactive), the GI50 (HL-60) was 24.2 µM (inactive) and the GI50 (OVCAR-5) was > 100 µM (inactive). For the same compound, the GI50 (NCI-H522) was > 86.3 µM (inactive), the GI50 (OVCAR-8) was > 100 µM (inactive) and the GI50 (NCI-H460) was > 96.4 µM (inactive). For the same compound, the GI50 (SNB-75) was > 80.7 µM (inactive), the GI50 (KM-20L2) was > 100 µM (inactive) and the GI50 (SNB-19) was > 100 µM (inactive). For the same compound, the GI50 (HOP-62) was > 100 µM (inactive).

For `COc1ccc2c(c1)[n+]([O-])c(C(=O)C/C(=N\NC(=O)C[N+](C)(C)C)C(=O)Nc1cc(Cl)ccc1Cl)c(C)[n+]2[O-]`, the GI50 (LXFL 529) was > 100 µM (inactive), the GI50 (786-0) was > 100 µM (inactive) and the GI50 (MOLT-4) was > 100 µM (inactive). The GI50 (Malme-3M) was > 100 µM (inactive), the GI50 (DMS-273) was > 100 µM (inactive) and the GI50 (HCT-116) was > 100 µM (inactive). The GI50 (NCI-H226) was > 100 µM (inactive), the GI50 (U-251) was > 100 µM (inactive) and the GI50 (HCT-15) was greater than 100 µM. For the same compound, the GI50 (SNB-78) was > 100 µM (inactive), the GI50 (M19-MEL) was > 100 µM (inactive) and the GI50 (UO-31) was > 100 µM (inactive). The GI50 (SF-539) was > 100 µM (inactive), the GI50 (LOX IMVI) was > 100 µM (inactive) and the GI50 (OVCAR-3) was > 100 µM (inactive). The GI50 (IGROV-1) was > 100 µM (inactive), the GI50 (UACC-62) was 97.7 µM (inactive) and the GI50 (RXF 393) was > 100 µM (inactive). For the same compound, the GI50 (M14) was > 100 µM (inactive), the GI50 (EKVX) was 0.0891 µM (active) and the GI50 (COLO 205) was > 100 µM (inactive). The GI50 (SW-620) was > 100 µM (inactive), the GI50 (HOP-18) was > 100 µM (inactive) and the GI50 (K562) was > 100 µM (inactive). The GI50 (SK-MEL-2) was > 100 µM (inactive), the GI50 (SF-295) was > 100 µM (inactive) and the GI50 (UACC-257) was > 100 µM (inactive). For the same compound, the GI50 (HCC 2998) was > 100 µM (inactive), the GI50 (HT-29) was > 100 µM (inactive) and the GI50 (RPMI-8226) was > 100 µM (inactive). For the same compound, the GI50 (KM12) was > 100 µM (inactive), the GI50 (SK-MEL-28) was > 100 µM (inactive) and the GI50 (A498) was > 100 µM (inactive). The GI50 (SK-MEL-5) was > 100 µM (inactive), the GI50 (OVCAR-4) was > 100 µM (inactive) and the GI50 (NCI-H23) was > 100 µM (inactive). The GI50 (A549) was > 100 µM (inactive), the GI50 (HOP-92) was > 100 µM (inactive) and the GI50 (SN12C) was > 100 µM (inactive). For the same compound, the GI50 (SR) was 43.3 µM (inactive), the GI50 (SF-268) was > 100 µM (inactive) and the GI50 (DLD-1) was > 100 µM (inactive). The GI50 (ACHN) was > 100 µM (inactive), the GI50 (CAKI-1) was > 100 µM (inactive) and the GI50 (HL-60) was 88.3 µM (inactive). For the same compound, the GI50 (OVCAR-5) was > 100 µM (inactive), the GI50 (NCI-H522) was > 100 µM (inactive) and the GI50 (OVCAR-8) was > 100 µM (inactive). For the same compound, the GI50 (NCI-H460) was > 100 µM (inactive), the GI50 (CCRF-CEM) was > 100 µM (inactive) and the GI50 (SNB-75) was > 100 µM (inactive). The GI50 (SNB-19) was > 100 µM (inactive), the GI50 (HOP-62) was > 100 µM (inactive) and the GI50 (TK-10) was > 100 µM (inactive).
